Reference: US10022453B2 (BAYER PHARMA AKTIENGESELLSCHAFT, priority 2013, dated 2018)

Legend:
[1] = Cell permeability, flux assay using Caco-2 cells; conditions: human, Caco-2
Procedure: C-3 In Vitro Tests for Determining Cell Permeability
The cell permeability of a substance can be investigated by means of in vitro testing in a flux assay using Caco-2 cells [M. D. Troutman and D. R. Thakker, Pharm. […] For this purpose, the cells were cultured for 15-16 days on 24-well filter plates. For the determination of permeation, the respective working example was applied in a HEPES buffer to the cells either apically (A) or basally (B) and incubated for 2 hours. After 0 hours and after 2 hours, samples were taken from the cis and trans compartments. The samples were separated by HPLC (Agilent 1200, Böblingen, Germany) using reverse phase columns.
Of critical importance for toxophores which are released intracellularly is the permeability from B to A [Papp(B-A)] and the ratio of Papp(B-A) to Papp(A-B) (efflux ratio): the lower this permeability, the slower the active and passive transport processes of the substance through the monolayer of Caco-2 cells.

[2] = target: T1, human kinesin spindle protein KSP/Eg5 (Homo sapiens, UniProt P52732); assay: Inhibition of the kinesin spindle protein KSP/Eg5 (ATPase, malachite green); assay type: biochemical; conditions: 10 nM KSP motor domain, 500 μM ATP, 2 h RT
T1 construct: The motor domain of the human kinesin spindle protein KSP/Eg5; purchased tebu-bio/Cytoskeleton Inc 027EG01-XL
T1 sequence (P52732 18-359 limits assumed): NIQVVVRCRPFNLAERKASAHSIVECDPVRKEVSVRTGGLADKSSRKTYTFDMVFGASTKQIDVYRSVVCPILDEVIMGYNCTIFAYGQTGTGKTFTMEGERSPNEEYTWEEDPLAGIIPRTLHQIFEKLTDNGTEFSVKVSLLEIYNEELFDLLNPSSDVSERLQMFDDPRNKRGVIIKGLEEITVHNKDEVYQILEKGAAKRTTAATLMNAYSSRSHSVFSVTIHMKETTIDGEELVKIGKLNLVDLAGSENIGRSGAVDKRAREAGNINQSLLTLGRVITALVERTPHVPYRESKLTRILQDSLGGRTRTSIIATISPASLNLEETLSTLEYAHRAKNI
Procedure: C-1b Determination of the Inhibition of the Kinesin Spindle Protein KSP/Eg5 by Selected Examples
The motor domain of the human kinesin spindle protein KSP/Eg5 (from tebu-bio/Cytoskeleton Inc, No. 027EG01-XL) is incubated at a concentration of 10 nM with 50 μg/ml taxol- (from Sigma No. T7191-5MG) stabilized microtubuli (bovine or porcine, from tebu-bio/Cytoskeleton Inc) for 5 min at RT in 15 mM PIPES, pH 6.8 (5 mM MgCl2 and 10 mM DTT, from Sigma). The freshly prepared mixture is aliquoted into a 384-well MTP. The inhibitors to be examined at concentrations of 1.0×10^−6 M to 1.0×10^−13 and ATP (final concentration 500 μM, from Sigma) are then added. Incubation is at RT for 2 h. ATPase activity is detected by detecting the inorganic phosphate formed using malachite green (from Biomol). […] The individual data of the dose-activity curve are eight-fold determinations. The IC50 values are means of three independent experiments.

Compound	Papp B→A at 2 h [1] [×10⁻⁶ cm/s]	efflux ratio at 2 h [1]	IC50 [2] [nM]
CC(C)(C)[C@H](c1nc(-c2cc(F)ccc2F)cn1Cc1ccccc1)N(CC[C@H](N)C(=O)NCCC(=O)Nc1ccc(N2C(=O)CC(SC[C@H](N)C(=O)O)C2=O)cc1)C(=O)CO (stereo partly drawn) [Example 66, S-(1-{4-[(N-{(2S)-2-Amino-4-[{(1R)-1-[1-benzyl-4-(2,5-difluorophenyl)-1H-imidazol-2-yl]-2,2-dimethylpropyl}(glycoloyl)amino]butanoyl}-beta-alanyl)amino]phenyl}-2,5-dioxopyrrolidin-3-yl)-L-cysteine]	2.7	12	8.08
CC(C)(C)[C@H](c1nc(-c2cc(F)ccc2F)cn1Cc1ccccc1)N(CC[C@H](N)C(=O)N[C@H]1CCC[C@H]1C(=O)NCCN1C(=O)CC(SC[C@H](N)C(=O)O)C1=O)C(=O)CO (stereo partly drawn) [Example 67, S-{1-[2-({[(1R,2S)-2-({(2S)-2-Amino-4-[{(1R)-1-[1-benzyl-4-(2,5-difluorophenyl)-1H-imidazol-2-yl]-2,2-dimethylpropyl}(glycoloyl)amino]butanoyl}amino)cyclopentyl]carbonyl}amino)ethyl]-2,5-dioxopyrrolidin-3-yl}-L-cysteine]	2.5	15	8.07
C[C@H](NC(=O)CCNC(=O)[C@@H](N)CCN(C(=O)CO)[C@@H](c1nc(-c2cc(F)ccc2F)cn1Cc1ccccc1)C(C)(C)C)C(=O)N[C@@H](CCCNC(N)=O)C(=O)Nc1ccc(N2C(=O)CC(SC[C@H](N)C(=O)O)C2=O)cc1 (stereo partly drawn) [Example 68, N-{(2S)-2-Amino-4-[{(1R)-1-[1-benzyl-4-(2,5-difluorophenyl)-1H-imidazol-2-yl]-2,2-dimethylpropyl}(glycoloyl)amino]butanoyl}-beta-alanyl-L-alanyl-N-[4-(3-{[(2R)-2-amino-2-carboxyethyl]sulphanyl}-2,5-dioxopyrrolidin-1-yl)phenyl]-N^5-carbamoyl-L-ornithinamide]	0.18	1.9	3.22
CC(C)[C@H](NC(=O)CCNC(=O)[C@@H](N)CCN(C(=O)CO)[C@@H](c1nc(-c2cc(F)ccc2F)cn1Cc1ccccc1)C(C)(C)C)C(=O)N[C@@H](CCCNC(N)=O)C(=O)Nc1ccc(CC(=O)NCCN2C(=O)CC(SC[C@H](N)C(=O)O)C2=O)cc1 (stereo partly drawn) [Example 69, N-{(2S)-2-Amino-4-[{(1R)-1-[1-benzyl-4-(2,5-difluorophenyl)-1H-imidazol-2-yl]-2,2-dimethylpropyl}(glycoloyl)amino]butanoyl}-beta-alanyl-L-valyl-N-[4-(2-{[2-(3-{[(2R)-2-amino-2-carboxyethyl]sulphanyl}-2,5-dioxopyrrolidin-1-yl)ethyl]amino}-2-oxoethyl)phenyl]-N^5-carbamoyl-L-ornithinamide]	0.15	2	4.82
C[C@H](NC(=O)CCNC(=O)[C@@H](N)CCN(C(=O)CO)[C@@H](c1nc(-c2cc(F)ccc2F)cn1Cc1ccccc1)C(C)(C)C)C(=O)N[C@@H](CCCNC(N)=O)C(=O)Nc1ccc(CC(=O)NCCN2C(=O)CC(SC[C@H](N)C(=O)O)C2=O)cc1 (stereo partly drawn) [Example 70, N-{(2S)-2-Amino-4-[{(1R)-1-[1-benzyl-4-(2,5-difluorophenyl)-1H-imidazol-2-yl]-2,2-dimethylpropyl}(glycoloyl)amino]butanoyl}-beta-alanyl-L-alanyl-N-[4-(2-{[2-(3-{[(2R)-2-amino-2-carboxyethyl]sulphanyl}-2,5-dioxopyrrolidin-1-yl)ethyl]amino}-2-oxoethyl)phenyl]-N^5-carbamoyl-L-ornithinamide]	0.16	1.9	3.18
CC(C)(C)[C@H](c1nc(-c2cc(F)ccc2F)cn1Cc1ccccc1)N(CC[C@H](N)C(=O)NCCOCCOCCOCCC(=O)O)C(=O)CO.O=C(O)C(F)(F)F [Example 71, (15S,19R)-15-Amino-19-[1-benzyl-4-(2,5-difluorophenyl)-1H-imidazol-2-yl]-18-glycoloyl-20,20-dimethyl-14-oxo-4,7,10-trioxa-13,18-diazahenicosan-1-oic acid/trifluoroacetic acid (1:1)]	28	280	1.22
CC(C)[C@H](NC(=O)CCNC(=O)[C@@H](N)CCN(C(=O)CO)[C@@H](c1nc(-c2cc(F)ccc2F)cn1Cc1ccccc1)C(C)(C)C)C(=O)N[C@@H](CCCNC(N)=O)C(=O)O.O=C(O)C(F)(F)F [Example 72, N-{(2S)-2-Amino-4-[{(1R)-1-[1-benzyl-4-(2,5-difluorophenyl)-1H-imidazol-2-yl]-2,2-dimethylpropyl}(glycoloyl)amino]butanoyl}-beta-alanyl-L-valyl-N^5-carbamoyl-L-ornithine/trifluoroacetic acid (1:1)]	0.25	2.1	4.85
C[C@H](NC(=O)CCNC(=O)[C@@H](N)CCN(C(=O)CO)[C@@H](c1nc(-c2cc(F)ccc2F)cn1Cc1ccccc1)C(C)(C)C)C(=O)N[C@@H](CCCNC(N)=O)C(=O)O.O=C(O)C(F)(F)F [Example 73, N-{(2S)-2-Amino-4-[{(1R)-1-[1-benzyl-4-(2,5-difluorophenyl)-1H-imidazol-2-yl]-2,2-dimethylpropyl}(glycoloyl)amino]butanoyl}-beta-alanyl-L-alanyl-N^5-carbamoyl-L-ornithine/trifluoroacetic acid (1:1)]	0.46	2.7	4.52
CC(C)(C)[C@H](c1nc(-c2cc(F)ccc2F)cn1Cc1ccccc1)N(CC[C@H](N)C(=O)NCCC(=O)N[C@@H](Cc1ccc(N)cc1)C(=O)O)C(=O)CO.O=C(O)C(F)(F)F.O=C(O)C(F)(F)F [Example 74, N-{(2S)-2-Amino-4-[{(1R)-1-[1-benzyl-4-(2,5-difluorophenyl)-1H-imidazol-2-yl]-2,2-dimethylpropyl}(glycoloyl)amino]butanoyl}-beta-alanyl-4-amino-L-phenylalanine/trifluoroacetic acid (1:2)]	2.6	15	6.13
CC(C)(C)[C@H](c1nc(-c2cc(F)ccc2F)cn1Cc1ccccc1)N(CC[C@H](N)C(=O)O)C(=O)CO.O=C(O)C(F)(F)F [Example 76, (2S)-2-Amino-4-[{(1R)-1-[1-benzyl-4-(2,5-difluorophenyl)-1H-imidazol-2-yl]-2,2-dimethylpropyl}(glycoloyl)amino]butanoic acid/trifluoroacetic acid (1:1)]	5.5	27	2.33
CC(C)(C)[C@H](c1nc(-c2cc(F)ccc2F)cn1Cc1ccccc1)N(CC[C@H](N)CN)C(=O)CO.O=C(O)C(F)(F)F [Example 78, Trifluoroacetic acid/N-{(1R)-1-[1-benzyl-4-(2,5-difluorophenyl)-1H-imidazol-2-yl]-2,2-dimethylpropyl}-N-[(3S)-3,4-diaminobutyl]-2-hydroxyacetamide (1:1)]	14	44	4.95
CC(C)(C)[C@H](c1nc(-c2cc(F)ccc2F)cn1Cc1ccccc1)N(CC[C@H](N)C(=O)NCCN)C(=O)CO.O=C(O)C(F)(F)F.O=C(O)C(F)(F)F [Example 80, Trifluoroacetic acid/(2S)-2-amino-N-(2-aminoethyl)-4-[{(1R)-1-[1-benzyl-4-(2,5-difluorophenyl)-1H-imidazol-2-yl]-2,2-dimethylpropyl}(glycoloyl)amino]butanamide (2:1)]	20	22	3.72
